Source: patent US9556179B2 (BRISTOL-MYERS SQUIBB COMPANY, priority 2012, dated 2017)

Key:
[1] = molecular target: CK1δ (Homo sapiens (Human), UniProt P48730); assay: CK1δ kinase assay (Caliper LABCHIP electrophoretic separation of fluoresceinated peptide substrate and product); assay type: biochemical; conditions: 200 pM enzyme, 50 μM ATP, 22 hours at room temperature
Outline: (§1)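 Compounds, taken from 10 mM DMSO stocks, are titrated at eleven concentrations. Kinase reactions proceed for 22 hours at room temperature and are quenched with EDTA. Substrate and product are resolved electrophoretically, and IC50 values are fitted by non-linear regression.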

[2] = molecular target: CK1ε (Homo sapiens (Human), UniProt P49674); assay: CK1ε kinase assay (Caliper LABCHIP electrophoretic separation of fluoresceinated peptide substrate and product); assay type: biochemical; conditions: 200 pM enzyme, 50 μM ATP, 22 hours at room temperature
CK1ε, sequence (P49674 whole entry): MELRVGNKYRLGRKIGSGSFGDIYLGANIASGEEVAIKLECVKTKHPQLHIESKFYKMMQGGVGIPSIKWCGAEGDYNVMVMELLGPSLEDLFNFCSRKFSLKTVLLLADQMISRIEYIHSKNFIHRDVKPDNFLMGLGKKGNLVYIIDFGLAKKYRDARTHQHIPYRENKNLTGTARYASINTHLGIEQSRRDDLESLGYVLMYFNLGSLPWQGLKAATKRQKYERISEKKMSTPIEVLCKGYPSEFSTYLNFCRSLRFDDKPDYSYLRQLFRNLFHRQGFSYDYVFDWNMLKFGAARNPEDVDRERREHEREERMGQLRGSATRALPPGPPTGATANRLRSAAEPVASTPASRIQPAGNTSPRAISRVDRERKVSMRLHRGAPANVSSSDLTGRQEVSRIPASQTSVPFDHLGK
Outline: as §1

CK1δ, sequence (P48730 whole entry): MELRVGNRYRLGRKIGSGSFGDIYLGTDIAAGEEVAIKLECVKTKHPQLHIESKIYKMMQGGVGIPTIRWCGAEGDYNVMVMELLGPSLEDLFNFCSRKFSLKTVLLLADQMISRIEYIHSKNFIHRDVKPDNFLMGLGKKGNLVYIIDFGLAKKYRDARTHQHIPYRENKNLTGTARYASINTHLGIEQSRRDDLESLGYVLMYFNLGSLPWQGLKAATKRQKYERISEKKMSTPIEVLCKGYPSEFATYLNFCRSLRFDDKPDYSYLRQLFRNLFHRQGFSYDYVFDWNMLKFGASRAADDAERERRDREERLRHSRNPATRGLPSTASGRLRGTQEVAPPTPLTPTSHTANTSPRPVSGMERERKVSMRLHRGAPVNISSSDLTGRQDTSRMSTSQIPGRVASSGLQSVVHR

SMILES | IC50 [1] | IC50 [2]
O=C(Nc1cn2nc(-c3c(-c4ccc(F)cc4)nc(C4CC4)n3C3CCNCC3)ccc2n1)c1ccnc(F)c1 [Compound 119, N-(6-(2-cyclopropyl-4-(4-fluorophenyl)-1-(piperidin-4-yl)-1H-imidazol-5-yl)imidazo[1,2-b]pyridazin-2-yl)-2-fluoroisonicotinamide] | 1.21 nM | 8.27 nM
COCCN1CCC(n2c(C3CC3)nc(-c3ccc(F)cc3)c2-c2ccc3nc(NC(=O)c4ccnc(F)c4)cn3n2)CC1 [Compound 120, N-(6-(2-cyclopropyl-4-(4-fluorophenyl)-1-(1-(2-methoxyethyl)piperidin-4-yl)-1H-imidazol-5-yl)imidazo[1,2-b]pyridazin-2-yl)-2-fluoroisonicotinamide] | 1.52 nM | 16.7 nM
O=C(Nc1cn2nc(-c3c(-c4ccc(F)cc4)nc(C4CC4)n3C3CCN(c4ccncc4)CC3)ccc2n1)c1ccnc(F)c1 [Compound 123, N-(6-(2-cyclopropyl-4-(4-fluorophenyl)-1-(1-(pyridin-4-yl)piperidin-4-yl)-1H-imidazol-5-yl)imidazo[1,2-b]pyridazin-2-yl)-2-fluoroisonicotinamide] | 2.86 nM | 16.7 nM
O=C(Nc1cn2nc(-c3c(-c4ccc(F)cc4)nc(C4CC4)n3C3CCN(S(=O)(=O)C4CC4)CC3)ccc2n1)c1ccnc(F)c1 [Compound 124, N-(6-(2-cyclopropyl-1-(1-(cyclopropylsulfonyl)piperidin-4-yl)-4-(4-fluorophenyl)-1H-imidazol-5-yl)imidazo[1,2-b]pyridazin-2-yl)-2-fluoroisonicotinamide] | 3.72 nM | 27.1 nM
O=C(Nc1cn2nc(-c3c(-c4ccc(F)cc4)nc(C4CC4)n3C3CCN(C(=O)Nc4ccncc4)CC3)ccc2n1)c1ccnc(F)c1 [Compound 125, N-(6-(2-cyclopropyl-4-(4-fluorophenyl)-1-(1-(pyridin-4-ylcarbamoyl)piperidin-4-yl)-1H-imidazol-5-yl)imidazo[1,2-b]pyridazin-2-yl)-2-fluoroisonicotinamide] | 0.95 nM | 6.03 nM
O=C(Nc1cn2nc(-c3c(-c4ccc(F)cc4)nc(C4CC4)n3C3CCN(C(=O)c4ccon4)CC3)ccc2n1)c1ccnc(F)c1 [Compound 126, N-(6-(2-cyclopropyl-4-(4-fluorophenyl)-1-(1-(isoxazole-3-carbonyl)piperidin-4-yl)-1H-imidazol-5-yl)imidazo[1,2-b]pyridazin-2-yl)-2-fluoroisonicotinamide] | 1.66 nM | 9.02 nM
O=C(Nc1cn2nc(-c3c(-c4ccc(F)cc4)nc(C4CC4)n3C3CCN(C(=O)CC(F)(F)F)CC3)ccc2n1)c1ccnc(F)c1 [Compound 127, N-(6-(2-cyclopropyl-4-(4-fluorophenyl)-1-(1-(3,3,3-trifluoropropanoyl)piperidin-4-yl)-1H-imidazol-5-yl)imidazo [1,2-b]pyridazin-2-yl)-2-fluoroisonicotinamide] | 1.75 nM | 10.1 nM
Cn1nccc1CN1CCC(n2c(C3CC3)nc(-c3ccc(F)cc3)c2-c2ccc3nc(NC(=O)c4ccnc(F)c4)cn3n2)CC1 [Compound 129, N-(6-(2-cyclopropyl-4-(4-fluorophenyl)-1-(1-((1-methyl-1H-pyrazol-5-yl)methyl)piperidin-4-yl)-1H-imidazol-5-yl)imidazo[1,2-b]pyridazin-2-yl)-2-fluoroisonicotinamide] | 2.28 nM | 19.1 nM
O=C(Nc1cn2nc(-c3c(-c4ccc(F)cc4)nc(C4CC4)n3C3CCN(CCC(F)(F)F)CC3)ccc2n1)c1ccnc(F)c1 [Compound 130, N-(6-(2-cyclopropyl-4-(4-fluorophenyl)-1-(1-(3,3,3-trifluoropropyl)piperidin-4-yl)-1H-imidazol-5-yl)imidazo [1,2-b]pyridazin-2-yl)-2-fluoroisonicotinamide] | 3.32 nM | 53.3 nM
O=C(Nc1cn2nc(-c3c(-c4ccc(F)cc4)nc(C4CC4)n3C3CCN(Cc4ccncc4)CC3)ccc2n1)c1ccnc(F)c1 [Compound 131, N-(6-(2-cyclopropyl-4-(4-fluorophenyl)-1-(1-(pyridin-4-ylmethyl)piperidin-4-yl)-1H-imidazol-5-yl)imidazo [1,2-b]pyridazin-2-yl)-2-fluoroisonicotinamide] | 1.97 nM | 20.7 nM
O=C(Nc1cn2nc(-c3c(-c4ccc(F)cc4)nc(C4CC4)n3C3CCN(C4COC4)CC3)ccc2n1)c1ccnc(F)c1 [Compound 132, N-(6-(2-cyclopropyl-4-(4-fluorophenyl)-1-(1-(oxetan-3-yl)piperidin-4-yl)-1H-imidazol-5-yl)imidazo[1,2-b]pyridazin-2-yl)-2-fluoroisonicotinamide] | 1.7 nM | 14.2 nM
O=C(Nc1cn2nc(-c3c(-c4ccc(F)cc4)nc(C4CC4)n3C3CCN(Cc4ccon4)CC3)ccc2n1)c1cccc(-c2cccnc2)c1 [Compound 138, N-(6-(2-cyclopropyl-4-(4-fluorophenyl)-1-(1-(isoxazol-3-ylmethyl)piperidin-4-yl)-1H-imidazol-5-yl)imidazo[1,2-b]pyridazin-2-yl)-3-(pyridin-3-yl)benzamide] | 1.56 nM | 11 nM
Cc1nc(-c2ccc(F)cc2)c(-c2ccc3nc(NC(=O)c4ccnc(F)c4)cn3n2)n1C1CCN(CCCF)CC1 [Compound 140, 2-fluoro-N-(6-(4-(4-fluorophenyl)-1-(1-(3-fluoropropyl)piperidin-4-yl)-2-methyl-1H-imidazol-5-yl)imidazo[1,2-b]pyridazin-2-yl)isonicotinamide] | 2.29 nM | 22.2 nM

Molecules with a lower IC50 [1], results first:

IC50 [1] | IC50 [2] | SMILES
0.173 nM | 0.372 nM | O=C(Nc1cn2nc(-c3c(-c4ccc(F)cc4)ncn3C3CCN(C(=O)c4ccon4)CC3)ccc2n1)c1cncs1 [Compound 116, N-(6-(4-(4-fluorophenyl)-1-(1-(isoxazole-3-carbonyl)piperidin-4-yl)-1H-imidazol-5-yl)imidazo[1,2-b]pyridazin-2-yl)thiazole-5-carboxamide]
0.175 nM | 0.424 nM | O=C(Nc1cn2nc(-c3c(-c4ccc(F)cc4)ncn3C3CCN(C(=O)CC(F)(F)F)CC3)ccc2n1)c1cncs1 [Compound 117, N-(6-(4-(4-fluorophenyl)-1-(1-(3,3,3-trifluoropropanoyl)piperidin-4-yl)-1H-imidazol-5-yl)imidazo[1,2-b]pyridazin-2-yl)thiazole-5-carboxamide]
0.194 nM | 0.182 nM | O=C(Nc1cn2nc(-c3c(-c4ccc(F)cc4)ncn3C3CCN(C[C@H](O)C(F)(F)F)CC3)ccc2n1)c1cncs1 [Compound 118, (S)—N-(6-(4-(4-fluorophenyl)-1-(1-(3,3,3-trifluoro-2-hydroxypropyl)piperidin-4-yl)-1H-imidazol-5-yl)imidazo[1,2-b]pyridazin-2-yl)thiazole-5-carboxamide]
0.489 nM | 10.8 nM | NC(=O)CN1CCC(n2c(C3CC3)nc(-c3ccc(F)cc3)c2-c2ccc3nc(NC(=O)c4ccnc(F)c4)cn3n2)CC1 [Compound 121, N-(6-(1-(1-(2-amino-2-oxoethyl)piperidin-4-yl)-2-cyclopropyl-4-(4-fluorophenyl)-1H-imidazol-5-yl)imidazo [1,2-b]pyridazin-2-yl)-2-fluoroisonicotinamide]
0.446 nM | 2.86 nM | N#CCCN1CCC(n2c(C3CC3)nc(-c3ccc(F)cc3)c2-c2ccc3nc(NC(=O)c4ccnc(F)c4)cn3n2)CC1 [Compound 122, N-(6-(1-(1-(2-cyanoethyl)piperidin-4-yl)-2-cyclopropyl-4-(4-fluorophenyl)-1H-imidazol-5-yl)imidazo[1,2-b]pyridazin-2-yl)-2-fluoroisonicotinamide]
0.301 nM | 6.41 nM | O=C(Nc1cn2nc(-c3c(-c4ccc(F)cc4)nc(C4CC4)n3C3CCN(Cc4ccon4)CC3)ccc2n1)c1ccnc(F)c1 [Compound 128, N-(6-(2-cyclopropyl-4-(4-fluorophenyl)-1-(1-(isoxazol-3-ylmethyl)piperidin-4-yl)-1H-imidazol-5-yl)imidazo[1,2-b]pyridazin-2-yl)-2-fluoroisonicotinamide]
0.907 nM | 13.1 nM | O=C(Nc1cn2nc(-c3c(-c4ccc(F)cc4)nc(C4CC4)n3C3CCN(Cc4ccno4)CC3)ccc2n1)c1ccnc(F)c1 [Compound 133, N-(6-(2-cyclopropyl-4-(4-fluorophenyl)-1-(1-(isoxazol-5-ylmethyl)piperidin-4-yl)-1H-imidazol-5-yl)imidazo [1,2-b]pyridazin-2-yl)-2-fluoroisonicotinamide]
0.542 nM | 7.83 nM | O=C(Nc1cn2nc(-c3c(-c4ccc(F)cc4)nc(C4CC4)n3C3CCN(CCN4CCOCC4)CC3)ccc2n1)c1ccnc(F)c1 [Compound 134]
0.745 nM | 2.6 nM | O=C(Nc1cn2nc(-c3c(-c4ccc(F)cc4)nc(C4CC4)n3C3CCNCC3)ccc2n1)c1cccc(-c2cccnc2)c1 [Compound 135, N-(6-(2-cyclopropyl-4-(4-fluorophenyl)-1-(piperidin-4-yl)-1H-imidazol-5-yl)imidazo[1,2-b]pyridazin-2-yl)-3-(pyridin-3-yl)benzamide]
0.514 nM | 8.9 nM | N#CCCN1CCC(n2c(C3CC3)nc(-c3ccc(F)cc3)c2-c2ccc3nc(NC(=O)c4cccc(-c5cccnc5)c4)cn3n2)CC1 [Compound 136, N-(6-(1-(1-(2-cyanoethyl)piperidin-4-yl)-2-cyclopropyl-4-(4-fluorophenyl)-1H-imidazol-5-yl)imidazo[1,2-b]pyridazin-2-yl)-3-(pyridin-3-yl)benzamide]
0.203 nM | 5.78 nM | NCC(=O)N1CCC(n2c(C3CC3)nc(-c3ccc(F)cc3)c2-c2ccc3nc(NC(=O)c4cccc(-c5cccnc5)c4)cn3n2)CC1 [Compound 137, N-(6-(1-(1-(2-aminoacetyl)piperidin-4-yl)-2-cyclopropyl-4-(4-fluorophenyl)-1H-imidazol-5-yl)imidazo[1,2-b]pyridazin-2-yl)-3-(pyridin-3-yl)benzamide]
